From ChEMBL document CHEMBL5257071, “Total Synthesis and Biological Evaluation of the Anti-Inflammatory (13R,14S,15R)-13-Hydroxy-14-deoxyoxacyclododecindione” (J Nat Prod, 2023) come the findings set out here.

The target of the assay is Mothers against decapentaplegic homolog 2/homolog 3 (Homo sapiens, UniProt P84022+Q15796). The assay can be described thus: Inhibition of TGF-beta induced Smad2/3 signaling in human HepG2 cells harboring pRL-EF1alpha, (CAGA)9x-MLP-Luc plasmid assessed as luciferase activity incubated for 24 hrs by Promega reporter rene assay. In kind it is cell-based.

As a reminder, the IC50 is the midpoint of a concentration-inhibition curve. In the case of `C/C1=C\CCC(C)(O)C(C)OC(=O)Cc2c(Cl)c(O)cc(O)c2C1=O` (centres undefined), the IC50 was determined as 137 nM.
Consider `C/C1=C\C[C@@H](O)[C@H](C)[C@@H](C)OC(=O)Cc2c(Cl)c(O)cc(O)c2C1=O`, for which the IC50 was found to be 236 nM.
On to `C/C1=C\CCC(C)(C)C(C)OC(=O)Cc2c(Cl)c(O)cc(O)c2C1=O` (centres undefined), for which the IC50 was 30 nM.
Regarding `C/C1=C\CC[C@H](C)[C@@H](C)OC(=O)Cc2c(Cl)c(O)cc(O)c2C1=O`, the IC50 worked out at 90 nM.
